The source of these data is PMC5047629, “Synthesis, Pharmacological Profile and Docking Studies of New Sulfonamides Designed as Phosphodiesterase-4 Inhibitors” (PLoS ONE, 2016).

Series [1] concerns the target T1, PDE4C (Homo sapiens, UniProt Q08493).
T1 construct: purchased MDS PHARMA
Description: PDE4C inhibition, IMAP fluorescence polarization protocol. It is filed as biochemical. The note with it: 1 μM; mean ± SEM, 3 experiments. On the procedure:
(§1) The enzymatic reactions were carried at room temperature in a 96-well black plate by co-incubating 25 μL of 200 nM FAM-cAMP (R7513), 5 μL of putative inhibitory compounds and 20 μL of the PDE4 isoform dissolved in assay buffer (R7364) for 1 h. All enzymes were obtained from human recombinant sources (MDS PHARMA), whereas the other reagents were purchased from Molecular Devices. […] PDE4 inhibitors were dissolved in dimethyl sulfoxide (DMSO) at a final concentration of 0.1%.
(§2) The inhibitory activities of the new sulfonamide derivatives were evaluated for their selectivity against the four isoforms of human PDE4, i.e. PDE4A, PDE4B, PDE4C, and PDE4D, using an IMAP-FP protocol.

Series [2] addresses T2, PDE4B (Homo sapiens, UniProt Q07343).
T2 construct: purchased MDS PHARMA
In words: PDE4B inhibition, IMAP fluorescence polarization protocol. Type of series: biochemical. The note with it: 1 μM, mean ± SEM, 3 experiments. On the procedure: as §1, §2
(Fluorescence polarisation rises when a labelled molecule tumbles more slowly, as on binding a larger partner.)

For series [3], the target named is T3, PDE4D (Homo sapiens, UniProt Q08499).
T3 construct: purchased MDS PHARMA
T3 sequence (Q08499 1-673 isoform Q08499-2): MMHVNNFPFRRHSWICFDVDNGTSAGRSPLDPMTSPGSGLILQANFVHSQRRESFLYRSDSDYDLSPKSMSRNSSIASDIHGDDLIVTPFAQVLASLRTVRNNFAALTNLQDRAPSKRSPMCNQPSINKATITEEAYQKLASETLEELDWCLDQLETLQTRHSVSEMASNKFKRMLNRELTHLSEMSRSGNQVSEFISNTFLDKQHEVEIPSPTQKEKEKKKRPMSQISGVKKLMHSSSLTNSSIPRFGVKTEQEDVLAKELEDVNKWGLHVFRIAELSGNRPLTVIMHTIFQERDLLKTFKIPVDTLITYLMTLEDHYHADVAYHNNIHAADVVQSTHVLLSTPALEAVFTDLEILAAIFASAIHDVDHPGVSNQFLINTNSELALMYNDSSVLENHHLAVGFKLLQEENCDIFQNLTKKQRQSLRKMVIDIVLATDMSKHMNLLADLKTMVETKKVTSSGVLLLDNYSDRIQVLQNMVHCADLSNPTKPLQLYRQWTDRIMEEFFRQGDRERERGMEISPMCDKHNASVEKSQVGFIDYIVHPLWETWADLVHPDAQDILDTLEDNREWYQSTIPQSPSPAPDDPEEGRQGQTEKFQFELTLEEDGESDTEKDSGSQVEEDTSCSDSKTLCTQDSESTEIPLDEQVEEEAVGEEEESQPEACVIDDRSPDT
In words: PDE4D inhibition, IMAP fluorescence polarization protocol. It is filed as biochemical. The note with it: 1 μM, mean ± SEM, 3 experiments; for inhibition at 1 µM: read-out: PDE4D3 inhibition. On the procedure:
as §1, §2

The target in series [4] is T4, PDE4A (Homo sapiens, UniProt P27815).
T4 construct: purchased MDS PHARMA
T4 sequence (P27815 1-647 isoform P27815-4): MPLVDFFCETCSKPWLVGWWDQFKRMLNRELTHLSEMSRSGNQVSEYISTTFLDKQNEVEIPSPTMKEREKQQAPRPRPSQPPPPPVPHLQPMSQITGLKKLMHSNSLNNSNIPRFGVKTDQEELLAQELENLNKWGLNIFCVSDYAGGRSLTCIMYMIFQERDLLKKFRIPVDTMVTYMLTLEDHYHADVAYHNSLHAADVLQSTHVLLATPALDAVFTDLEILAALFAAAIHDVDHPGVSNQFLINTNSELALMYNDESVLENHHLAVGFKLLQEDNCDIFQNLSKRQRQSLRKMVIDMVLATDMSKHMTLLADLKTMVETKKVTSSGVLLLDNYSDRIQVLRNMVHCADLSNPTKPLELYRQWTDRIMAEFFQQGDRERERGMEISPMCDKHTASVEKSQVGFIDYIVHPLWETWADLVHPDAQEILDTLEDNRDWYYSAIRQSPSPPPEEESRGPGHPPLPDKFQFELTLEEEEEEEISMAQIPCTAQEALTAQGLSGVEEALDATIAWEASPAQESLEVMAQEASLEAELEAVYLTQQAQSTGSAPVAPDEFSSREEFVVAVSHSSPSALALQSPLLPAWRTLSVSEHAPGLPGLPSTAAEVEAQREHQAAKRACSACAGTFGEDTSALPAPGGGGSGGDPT
In words: PDE4A inhibition, IMAP fluorescence polarization protocol. It is filed as biochemical. The note with it: 1 μM; mean ± SEM, 3 experiments. Here is the method:
as §1, §2

T1 sequence (Q08493 whole entry): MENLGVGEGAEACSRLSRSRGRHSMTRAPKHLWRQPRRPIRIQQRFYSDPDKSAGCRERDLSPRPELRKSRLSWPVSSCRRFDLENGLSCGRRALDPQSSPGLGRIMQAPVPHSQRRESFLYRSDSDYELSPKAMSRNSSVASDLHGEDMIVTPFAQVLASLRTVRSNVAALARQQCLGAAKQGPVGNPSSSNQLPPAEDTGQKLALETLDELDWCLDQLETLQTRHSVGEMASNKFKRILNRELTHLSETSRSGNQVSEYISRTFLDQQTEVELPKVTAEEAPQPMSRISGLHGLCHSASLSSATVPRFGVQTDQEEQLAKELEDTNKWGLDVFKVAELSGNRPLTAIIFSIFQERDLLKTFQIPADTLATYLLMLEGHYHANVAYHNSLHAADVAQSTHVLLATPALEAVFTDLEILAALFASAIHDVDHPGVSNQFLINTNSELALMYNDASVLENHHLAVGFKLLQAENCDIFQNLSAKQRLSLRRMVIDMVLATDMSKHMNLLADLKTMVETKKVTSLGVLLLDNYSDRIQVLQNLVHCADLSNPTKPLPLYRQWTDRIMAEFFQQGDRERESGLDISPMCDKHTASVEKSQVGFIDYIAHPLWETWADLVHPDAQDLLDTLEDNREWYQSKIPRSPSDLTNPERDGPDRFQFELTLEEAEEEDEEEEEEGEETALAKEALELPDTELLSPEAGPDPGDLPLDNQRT
T2 sequence (Q07343 whole entry): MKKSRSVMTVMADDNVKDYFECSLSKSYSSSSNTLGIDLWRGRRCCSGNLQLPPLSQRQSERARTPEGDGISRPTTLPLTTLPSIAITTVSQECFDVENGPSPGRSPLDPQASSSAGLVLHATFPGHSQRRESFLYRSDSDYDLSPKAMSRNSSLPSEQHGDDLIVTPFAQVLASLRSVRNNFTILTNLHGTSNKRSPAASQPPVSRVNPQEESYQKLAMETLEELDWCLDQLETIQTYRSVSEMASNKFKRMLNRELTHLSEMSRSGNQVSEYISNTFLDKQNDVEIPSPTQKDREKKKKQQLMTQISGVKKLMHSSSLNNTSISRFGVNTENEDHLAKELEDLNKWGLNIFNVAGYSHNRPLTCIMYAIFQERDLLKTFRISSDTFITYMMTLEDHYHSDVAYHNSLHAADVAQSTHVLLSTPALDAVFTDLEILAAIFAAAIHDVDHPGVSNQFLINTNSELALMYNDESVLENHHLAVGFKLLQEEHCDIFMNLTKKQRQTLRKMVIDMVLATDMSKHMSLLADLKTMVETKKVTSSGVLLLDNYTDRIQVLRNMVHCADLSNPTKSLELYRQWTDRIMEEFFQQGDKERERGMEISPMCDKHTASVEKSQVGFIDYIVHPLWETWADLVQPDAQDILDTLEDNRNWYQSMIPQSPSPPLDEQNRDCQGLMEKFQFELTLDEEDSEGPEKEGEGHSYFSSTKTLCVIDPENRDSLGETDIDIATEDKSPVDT

`Cc1cc2c(cc1S(=O)(=O)NCCc1ccccc1)OCO2` [5 (LASSBio-964), 6-methyl-N-phenethylbenzo[d][1, 3]dioxole-5-sulfonamide] returned a melting point of 88 to 89 °C. In series [1], this compound came in with an inhibition at 1 µM of 3.9 ± 2.9%. Also, the PDE4B1 inhibition entry in series [2] is recorded as “Inactive”. Besides, in series [3], the PDE4D3 inhibition result is recorded as “only a marginal activity” and the inhibition at 1 µM turned out to be 33.5 ± 4.5%. The PDE4A1A inhibition entry in series [4] is on record as “Inactive”.

Consider `COc1ccc(CCN(C)S(=O)(=O)c2cc3c(cc2C)OCO3)cc1OC` [6b (LASSBio-959), N-(3,4-dimethoxyphenethyl)-N-6-dimethylbenzo[d][1, 3]dioxole-5-sulfonamide], for which the melting point was 92 to 94 °C. Further, 1 µM produced 5.6 ± 1% inhibition in series [1]. The PDE4B1 inhibition result in series [2] is recorded as “Inactive”. For the same compound, in series [3], the PDE4D3 inhibition entry is “only a marginal activity” and the inhibition at 1 µM stood at 42.4 ± 3.5%. For the same compound, the PDE4A1A inhibition result in series [4] is on record as “Inactive”.

Turning to `COc1ccc(CCN(Cc2ccccc2)S(=O)(=O)c2cc3c(cc2C)OCO3)cc1OC` [6c (LASSBio-960), N-(3,4-dimethoxyphenethyl)-N-benzyl-6-methylbenzo[d][1, 3]dioxole-5-sulfonamide], the melting point lay within 119 to 121 °C. The compound also registered an inhibition at 1 µM in series [1] of 2 ± 0.8%. Further, in series [2], the PDE4B1 inhibition result is on record as “Inactive”. The inhibition at 1 µM in series [3] came to 21.6 ± 4.5%. In addition, the PDE4A1A inhibition entry in series [4] is “Inactive”.

For `C=CCN(CCc1ccc(OC)c(OC)c1)S(=O)(=O)c1cc2c(cc1C)OCO2` [6d (LASSBio-961), N-(3,4-dimethoxyphenethyl)-N-allyl-6-methylbenzo[d][1, 3]dioxole-5-sulfonamide], the melting point fell in the range of 74 to 76 °C. In series [1], this compound registered an inhibition at 1 µM of 6.3 ± 4.1%. The PDE4B1 inhibition result in series [2] was “Inactive”. Moreover, in series [3], the PDE4D3 inhibition entry is recorded as “only a marginal activity” and the inhibition at 1 µM stood at 40.4 ± 4.5%. The PDE4A1A inhibition result in series [4] is “Inactive”.

Take `COc1ccc(CCN(C2CCCC2)S(=O)(=O)c2cc3c(cc2C)OCO3)cc1OC` [6e (LASSBio-962), N-(3,4-dimethoxyphenethyl)-N-cyclopentyl-6-methylbenzo[d][1, 3]dioxole-5-sulfonamide]: the values for the inhibition at 1 µM in series [1] and in series [3] were 7.6 ± 1.1% and 23.6 ± 2.2%, respectively. In addition, the PDE4B1 inhibition result in series [2] is “Inactive”. Also, the PDE4A1A inhibition entry in series [4] is recorded as “Inactive”.

Consider `COc1ccc(CCNS(=O)(=O)c2ccccc2)cc1OC` [6f (LASSBio-965), N-(3,4-dimethoxyphenethyl)benzenesulfonamide], for which the melting point is 86 to 88 °C. Besides, in series [1], 1 µM produced 9.7 ± 3.3% inhibition. In addition, the PDE4B1 inhibition entry in series [2] was “Inactive”. Moreover, in series [3], the inhibition at 1 µM was determined as 19.3 ± 4%. Also, the PDE4A1A inhibition result in series [4] is recorded as “Inactive”.

`COc1ccc(CCN(C)S(=O)(=O)c2ccccc2)cc1OC` [6g (LASSBio-982), N-(3,4-dimethoxyphenethyl)-N-methylbenzenesulfonamide] gave a melting point of 67 to 68 °C. In series [1], this compound came in with an inhibition at 1 µM of 4.1%. In series [2], the PDE4B1 inhibition entry is “Inactive”. For the same compound, in series [3], the PDE4D3 inhibition result is “only a marginal activity” and the inhibition at 1 µM amounted to 37.4 ± 3.9%. For the same compound, the PDE4A1A inhibition entry in series [4] is given as “Inactive”.

`COc1ccc(CCN(Cc2ccccc2)S(=O)(=O)c2ccccc2)cc1OC` [6h (LASSBio-984), N-(3,4-dimethoxyphenethyl)-N-benzylbenzenesulfonamide]: the melting point fell in the range of 82 to 84 °C. Moreover, in series [1], the inhibition at 1 µM was found to be 9.8 ± 1.7%. In series [2] (read-out: PDE4B1 inhibition), the inhibition at 1 µM was found to be 5 ± 0.6%. Besides, in series [3], the inhibition at 1 µM was 14.3 ± 5.4%. Further, the PDE4A1A inhibition entry in series [4] is listed as “Inactive”.

The term inhibition denotes the relative decrease from the control value, in per cent. What is called melting point is the temperature, or range, at which the solid turns liquid.
